Where a name gives a salt, the structure may show the parent alone. Read-outs that look alike come from different tables or passages of the source.
Tested on: ATGL-KO iPSCs
Experiment: High throughput iPSC chemical screening, Oil Red O (ORO) lipid accumulation; for Z-score: test concentration or dose not given here
Format: cell-based, mouse
Conditions: for Rank in normalized ORO score from screen: glycolytic switch compounds
[1] = normalized ORO level vs DMSO-treated cells, compound present during 7 days differentiation, 96-well, negative = decrease in lipid accumulation

Row | Compound | Z-score [1] | further results
1 | O=C(O)c1cc(-c2ccc(F)cc2F)ccc1O [Diflunisal] | −0.3972 | –
2 | COc1cccc2c1C(=O)c1c(O)c3c(c(O)c1C2=O)C[C@@](O)(C(C)=O)C[C@@H]3O[C@H]1C[C@H](N)[C@H](O)[C@H](C)O1 [Daunorubicin hydrochloride] | 28.7571 | –
3 | CO[C@H]1C[C@H](O[C@H]2[C@H](C)[C@@H](O[C@@H]3O[C@H](C)C[C@H](N(C)C)[C@H]3O)[C@@H](C)C[C@@]3(CO3)C(=O)[C@H](C)[C@@H](O)[C@@H](C)[C@@H](C)OC(=O)[C@@H]2C)O[C@@H](C)[C@@H]1O [Oleandomycin phosphate] | 0.5069 | –
4 | C[C@]12CC[C@@H](O)C[C@@H]1CC[C@@H]1[C@@H]2CC[C@]2(C)C(=O)CC[C@@H]12 [Androsterone] | – | Z-score: 1.156
5 | Nc1cc(N2CCCCC2)nc(N)[n+]1[O-] [Minoxidil] | 0.06676 | –
6 | CC[C@H](C)C(=O)O[C@H]1C[C@@H](C)C=C2C=C[C@H](C)[C@H](CC[C@@H]3C[C@@H](O)CC(=O)O3)[C@H]21 [Lovastatin] | 6.935 | –
7 | CCOC(=O)Oc1c(OC)cc(C(=O)O[C@@H]2C[C@@H]3CN4CCc5c([nH]c6cc(OC)ccc56)[C@H]4C[C@@H]3[C@H](C(=O)OC)[C@H]2OC)cc1OC [Syrosingopine] | 0.3519 | –
8 | COc1ccc2cc([C@@H](C)C(=O)[O-])ccc2c1.[Na+] [(R)-Naproxen sodium salt] | 2.243 | –
9 | CC[C@@]1([C@@H]2O[C@@H]([C@H]3O[C@@](O)(CO)[C@H](C)C[C@@H]3C)C[C@@H]2C)CC[C@H]([C@]2(C)CC[C@]3(C[C@H](O)[C@@H](C)[C@@H]([C@@H](C)[C@@H](OC)[C@H](C)C(=O)O)O3)O2)O1 [Monensin sodium salt] | 18.1768 | –
10 | NC(=O)c1ccc[n+]([C@@H]2O[C@H](COP(=O)([O-])OP(=O)(O)OC[C@H]3O[C@@H](n4cnc5c(N)ncnc54)[C@H](O)[C@@H]3O)[C@@H](O)[C@H]2O)c1 [Nadide] | 0.1385 | –
11 | Cc1cc(C2CCCCC2)n(O)c(=O)c1.NCCO [Ciclopirox ethanolamine] | 40.334 | –
12 | O=c1n(CCCN2CCN(c3cccc(Cl)c3)CC2)nc2ccccn12 [Trazodone hydrochloride] | 0.03974 | –
13 | CC(C)[C@@]1(NC(=O)[C@@H]2C[C@@H]3c4cccc5[nH]cc(c45)C[C@H]3N(C)C2)O[C@@]2(O)[C@@H]3CCCN3C(=O)[C@H](Cc3ccccc3)N2C1=O [Dihydroergocristine mesylate] | 0.9157 | –
14 | Cn1c(=O)c2[nH]cnc2n(C)c1=O [Aminophylline] | −1.0552 | –
15 | CN1CCCN(C(c2ccccc2)c2ccc(Cl)cc2)CC1 (centres unmarked) [Homochlorcyclizine dihydrochloride] | −0.8178 | –
16 | CCOc1cc(CC(=O)N[C@@H](CC(C)C)c2ccccc2N2CCCCC2)ccc1C(=O)O [Repaglinide] | −0.2231 | –
17 | CC1(C)S[C@@H]2[C@H](NC(=O)[C@H](N)c3ccccc3)C(=O)N2[C@H]1C(=O)O [Ampicillin trihydrate] | −1.3793 | –
18 | CC(=O)Nc1cc2ccccc2oc1=O [3-Acetamidocoumarin] | 0.06786 | –
19 | NS(=O)(=O)c1cc(C2(O)NC(=O)c3ccccc32)ccc1Cl (centres unmarked) [Chlorthalidone] | −0.3195 | –
20 | CN1C(=O)CC(c2ccccc2)C1=O (centres unmarked) [Phensuximide] | 0.02844 | –
21 | CN(C(=O)CN(CCO)CC(=O)N(C)C(C)(C)Cc1ccccc1)C(C)(C)Cc1ccccc1 [Oxethazaine] | −0.9515 | –
22 | O=c1cc(-c2ccc(O)cc2)oc2cc(O)cc(O)c12 [Apigenin] | −0.2208 | –
23 | Nc1nc(O)c2[nH]nnc2n1 [Azaguanine-8] | 2.948 | –
24 | O=C(NCC(O)CO)c1c(I)c(C(=O)NCC(O)CO)c(I)c(N(CCO)C(=O)CO)c1I (centres unmarked) [Ioversol] | 0.08392 | –

Row | Compound | Z-score [1] | further results
25 | CCC1(CC)C(=O)C=CNC1=O [Pyrithyldione] | 0.5042 | –
26 | Cc1onc(-c2ccccc2Cl)c1C(=O)N[C@@H]1C(=O)N2[C@@H]1SC(C)(C)[C@@H]2C(=O)O [Cloxacillin sodium salt] | −1.0101 | –
27 | CN1CCC[C@@H]1CCO[C@](C)(c1ccccc1)c1ccc(Cl)cc1 [Clemastine fumarate] | −1.0269 | Rank in normalized ORO score from screen: 197
28 | COc1ccc2c(c1OC)C(=O)O[C@@H]2[C@H]1c2cc3c(cc2CCN1C)OCO3 [Hydrastine hydrochloride] | −0.3277 | –
29 | CC=CC(=O)N(CC)c1ccccc1C [Crotamiton] | 2.886 | –
30 | CCCCC[C@H](O)/C=C/[C@H]1[C@H](O)CC(=O)[C@@H]1CCCCCCC(=O)O [Alprostadil] | −0.9154 | –
31 | C[C@]12CC[C@@H]3c4ccc(OS(=O)(=O)O)cc4CC[C@H]3[C@@H]1CCC2=O [Estropipate] | −1.7711 | –
32 | O=C1c2ccccc2C(=O)C1c1ccccc1 [Phenindione] | 0.2654 | –
33 | OC(c1ccccc1)(c1ccccc1)C1CCNCC1 [Azacyclonol] | −1.0159 | –
34 | Cc1scc2c1N(C(=O)CN1CCN(C)CC1)c1ccccc1NC2=O [Telenzepine dihydrochloride] | 0.2257 | –
35 | O=C1CN(/N=C/c2ccc([N+](=O)[O-])o2)C(=O)N1 [Nitrofurantoin] | 0.3631 | –
36 | Nc1ncn([C@@H]2O[C@H](CO)[C@@H](O)[C@H]2O)c(=O)n1 [Azacytidine-5] | 16.1728 | –
37 | Cc1c(C)c2c(c(C)c1O)CCC(C)(C(=O)O)O2 (centres unmarked) [Trolox] | −1.1986 | –
38 | O=C(CCCCC(=O)Nc1c(I)cc(I)c(C(=O)O)c1I)Nc1c(I)cc(I)c(C(=O)O)c1I [Iodipamide] | −0.3225 | –
39 | COc1ccc2c(c1OC)C(=O)O[C@@H]2[C@H]1c2c(cc3c(c2OC)OCO3)CCN1C [Noscapine] | 0.8948 | –
40 | CCCC1O[C@@H]2C[C@H]3[C@@H]4CCC5=CC(=O)C=C[C@]5(C)[C@H]4[C@@H](O)C[C@]3(C)[C@]2(C(=O)CO)O1 (some centres unmarked) [Budesonide] | 19.1411 | –
41 | CCC1(c2cccc(O)c2)CCCCN(C)C1 (centres unmarked) [Meptazinol hydrochloride] | −1.0631 | –
42 | CN[C@@H]1[C@@H](O)[C@@H](O[C@@H]2[C@@H](O)[C@H](O[C@H]3OC(CN)=CC[C@H]3N)[C@@H](N)C[C@H]2N)OC[C@]1(C)O [Sisomicin sulfate] | −0.7041 | –
43 | CCCN(CCC)S(=O)(=O)c1ccc(C(=O)O)cc1 [Probenecid] | 0.754 | –
44 | CCCCC(CC)CN1CN(CC(CC)CCCC)CC(C)(N)C1 (centres unmarked) [Hexetidine] | 1.396 | –
45 | COc1cc(C(=O)OC2CC3CCC(C2)N3C)ccc1O (centres unmarked) [Fillalbin] | 0.7621 | –
46 | Cn1cnc2c1c(=O)[nH]c(=O)n2C [Theobromine] | 0.09359 | –
47 | CC[C@H]1CN2CC[C@H]1C[C@H]2[C@H](O)c1ccnc2ccc(OC)cc12 [Hydroquinine hydrobromide hydrate] | 1.2243 | –
48 | Cc1cc(C(C)(C)CC(C)(C)C)ccc1OCCOCC[N+](C)(C)Cc1ccccc1.[Cl-] [Methyl benzethonium chloride] | 12.6356 | –

Row | Compound | Z-score [1] | further results
49 | CNCC(O)c1ccc(O)c(OC)c1.Cl (stereo not drawn) [Metanephrine hydrochloride DL] | −1.0419 | –
50 | CN1C[C@H](CNC(=O)OCc2ccccc2)C[C@@H]2c3cccc4c3c(cn4C)C[C@H]21 [Metergoline] | 0.5474 | –
51 | Cc1cc(C(C)(C)C)c(O)c(C)c1CC1=NCCN1 [Oxymetazoline hydrochloride] | 0.1199 | –
52 | C[C@@H]1NCCc2cc(O)c(O)cc21 [Salsolinol hydrobromide] | 0.8772 | –
53 | CCCNC(C)C(=O)Nc1ccccc1C (centres unmarked) [Prilocaine hydrochloride] | −1.2624 | –
54 | CC(C(=O)O)c1cccc(Oc2ccccc2)c1 (centres unmarked) [Fenoprofen calcium salt dihydrate] | −0.4668 | –
55 | CCC(=O)O[C@H]1CC[C@H]2[C@@H]3CCC4=CC(=O)CC[C@]4(C)[C@H]3CC[C@]12C [Testosterone propionate] | 0.7489 | Rank in normalized ORO score from screen: 857
56 | CC(C)NC[C@@H](O)COc1ccc(CC(N)=O)cc1 [(R)-(+)-Atenolol] | 0.9856 | –
57 | CN1[C@@H]2CCC[C@H]1CC(=O)C2.Cl [Pseudopelletierine hydrochloride] | 0.1911 | –
58 | CC/C(=C(/CC)c1ccc(O)cc1)c1ccc(O)cc1 [Diethylstilbestrol] | −0.977 | –
59 | CN1CCN(CCCN2c3ccccc3Sc3ccc(Cl)cc32)CC1 [Prochlorperazine dimaleate] | 1.82 | –
60 | CN(C)CCOC(=O)C(c1ccccc1)C1(O)CCCC1 (centres unmarked) [Cyclopentolate hydrochloride] | 1.252 | –
61 | Cc1cccc(C)c1OCC(C)N (centres unmarked) [Mexiletine hydrochloride] | 1.054 | –
62 | CC[C@@H](C(=O)[C@@H](C)[C@@H](O)[C@H](C)CCc1ccc(C)c(O)c1C(=O)O)[C@H]1O[C@](CC)([C@H]2CC[C@](O)(CC)[C@H](C)O2)C[C@@H]1C [Lasalocid sodium salt] | 9.898 | –
63 | [H]/N=C(/N)N[C@H]1[C@H](O)[C@@H](O)[C@H](O[C@@H]2O[C@@H](C)[C@](O)(C=O)[C@H]2O[C@@H]2O[C@@H](CO)[C@H](O)[C@@H](O)[C@@H]2NC)[C@@H](N/C(N)=N\[H])[C@@H]1O [Streptomycin sulfate] | 1.417 | –
64 | CN1CCC2(C)c3cc(O)ccc3N(C)C12.O=C(O)/C=C/C(=O)O (single isomer, unassigned; (-)) [(−)-Eseroline fumarate salt] | −0.478 | –
65 | Pizotifen malate | −1.2994 | –
66 | CCOc1ccc2ccccc2c1C(=O)N[C@@H]1C(=O)N2[C@@H]1SC(C)(C)[C@@H]2C(=O)O [Nafcillin sodium salt monohydrate] | −0.1498 | –
67 | O=C(O)COC(=O)Cc1ccccc1Nc1c(Cl)cccc1Cl [Aceclofenac] | −0.5442 | –
68 | Pridinol methanesulfonate salt | 1.97 | –
69 | CC1=CC(=O)C2=C(C)C[C@H](O)[C@@H]3[C@H](OC(=O)[C@H]3C)[C@H]12 [Austricine] | −0.5795 | –
70 | CC(=O)CCCCn1c(=O)c2c(ncn2C)n(C)c1=O [Pentoxifylline] | −1.1547 | –
71 | CCCCOc1cc(C(=O)NCCN(CC)CC)c2ccccc2n1 [Dibucaine] | 0.2274 | –
72 | CC(=O)Oc1cc(C(F)(F)F)ccc1C(=O)O [Triflusal] | −1.2041 | –

From US9393221B2, “Methods and compounds for reducing intracellular lipid storage” (THE GENERAL HOSPITAL CORPORATION, priority 2011, dated 2016)
